The record followed here is ChEMBL document CHEMBL1132887, “Syntheses and biological evaluation of novel 2alpha-substituted 1alpha,25-dihydroxyvitamin D3 analogues” (2000).

Holding throughout (parameters): reference not given here
In experiment [1] the target is T1, Vitamin D-binding protein (Rattus norvegicus) (UniProt P04276).
T1 sequence (whole entry): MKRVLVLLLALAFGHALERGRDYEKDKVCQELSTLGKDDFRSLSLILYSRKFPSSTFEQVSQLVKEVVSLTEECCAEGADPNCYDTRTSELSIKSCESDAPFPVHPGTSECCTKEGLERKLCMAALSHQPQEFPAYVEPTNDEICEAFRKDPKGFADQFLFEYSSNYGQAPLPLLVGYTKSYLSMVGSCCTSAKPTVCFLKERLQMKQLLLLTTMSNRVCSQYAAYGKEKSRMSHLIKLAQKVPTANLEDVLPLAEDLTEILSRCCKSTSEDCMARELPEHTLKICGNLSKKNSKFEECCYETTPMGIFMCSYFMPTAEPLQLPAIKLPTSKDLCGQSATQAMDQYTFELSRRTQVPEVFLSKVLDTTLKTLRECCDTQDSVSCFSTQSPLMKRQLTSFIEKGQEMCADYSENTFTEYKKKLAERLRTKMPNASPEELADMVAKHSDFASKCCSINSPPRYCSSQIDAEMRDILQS
Description: Compound was tested for binding affinity against rat serum DBP (vitamin D binding protein). Type of experiment: cell-free.

The species entered for a further experiment is Rattus norvegicus. Description: Compound was evaluated for calcium mobilizing activity in rat serum. Type of experiment: functional.
The next experiment concerns HL-60. Description: Compound was evaluated for HL-60 cell differentiation which was assessed in terms of expression of antigen CD11b. Type of experiment: functional, Homo sapiens.
The target in experiment [2] is T2, Vitamin D3 receptor (Bos taurus) (UniProt Q28037).
T2 sequence (whole entry): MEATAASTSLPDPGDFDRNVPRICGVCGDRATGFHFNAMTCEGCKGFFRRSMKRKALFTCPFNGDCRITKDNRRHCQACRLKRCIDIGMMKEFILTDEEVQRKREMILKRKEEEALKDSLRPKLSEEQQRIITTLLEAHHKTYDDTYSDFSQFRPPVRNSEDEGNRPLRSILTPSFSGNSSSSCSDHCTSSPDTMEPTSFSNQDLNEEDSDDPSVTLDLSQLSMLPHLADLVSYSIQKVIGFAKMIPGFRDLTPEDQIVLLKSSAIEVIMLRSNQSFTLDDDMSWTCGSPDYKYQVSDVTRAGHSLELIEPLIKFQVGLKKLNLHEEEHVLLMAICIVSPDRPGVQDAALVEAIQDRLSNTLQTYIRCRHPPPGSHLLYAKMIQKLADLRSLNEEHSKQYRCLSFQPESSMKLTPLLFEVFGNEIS
Description: Binding affinity for bovine thymus vitamin D receptor (VDR).

For `C=C1/C(=C\C=C2/CCC[C@]3(C)[C@@H]([C@H](C)CCCC(C)(C)O)CC[C@@H]23)C[C@@H](O)C[C@@H]1O` [CALCITRIOL], the Activity (in experiment [1]; in the experiment listed under Rattus norvegicus; in the experiment on HL-60; in experiment [2]) was 100 each time.
Take `C=C1/C(=C\C=C2/CCC[C@]3(C)[C@@H]([C@H](C)CCCC(C)(C)O)CC[C@@H]23)C[C@@H](O)[C@H](CCO)[C@@H]1O`: the Activity in experiment [1] worked out at 74; in the experiment filed under Rattus norvegicus it was 372; with HL-60, 86; in experiment [2] it was 70.
On to `C=C1/C(=C\C=C2/CCC[C@]3(C)[C@@H]([C@H](C)CCCC(C)(C)O)CC[C@@H]23)C[C@@H](O)[C@H](CCC)[C@@H]1O`, for which the Activity in experiment [1] is 21; in the experiment filed under Rattus norvegicus, 636; with HL-60, 44; in experiment [2], 20.
Taken in the same sequence, the figures for `C=C1/C(=C\C=C2/CCC[C@]3(C)[C@@H]([C@H](C)CCCC(C)(C)O)CC[C@@H]23)C[C@@H](O)[C@H](C)[C@@H]1O` were 44, 658, 444 and 400.
On to `C=C1/C(=C\C=C2/CCC[C@]3(C)[C@@H]([C@H](C)CCCC(C)(C)O)CC[C@@H]23)C[C@@H](O)[C@H](CCCO)[C@@H]1O`, for which the Activity in experiment [1] turned out to be 362; in the experiment filed under Rattus norvegicus, 50866; in the experiment with HL-60 it was 240; in experiment [2] it was 300.
For `C=C1/C(=C\C=C2/CCC[C@]3(C)[C@@H]([C@H](C)CCCC(C)(C)O)CC[C@@H]23)C[C@@H](O)[C@H](CO)[C@@H]1O` the same measures were 95, 124, 10 and 20.
For `C=C1/C(=C\C=C2/CCC[C@]3(C)[C@@H]([C@H](C)CCCC(C)(C)O)CC[C@@H]23)C[C@@H](O)[C@H](CC)[C@@H]1O` the same measures were 48, 68, 106 and 40.
